Where no end group is shown, it is not given here. fluorescein = fluorescein (Fl)
Tested on: human endothelial coronary artery cells (HCAECs) which are known in the literature to express LOX-1
Experiment: Fluorescent confocal imaging of labeled peptide bound to HCAECs
Assay type: cell-based
Conditions: HCAECs grown in glass slides, fluorescent confocal microscope, FIG. 2
Protocol: Images in the assay may be acquired using a laser confocal microscope or an Imager. For example, images of peptides bound to cells can be obtained using a laser confocal microscope as follows: HCAE cells can be grown on high quality borosilicate 8-chambered glass slides (Electron Microscopy Sciences, Fort Washington, Pa.). Then, about 10 μL of 1 mg/ml of an aqueous solution of a labeled peptide can be added to the cells and incubated for 1 hour. Subsequently, the cells preferably are washed with HBSS buffer three times. The cells then can be fixed with 4% formaldehyde solution over 10 minutes. After a final wash with buffer, the slide is imaged. Images preferably are acquired using an OLYMPUS laser scanning confocal microscope, model Fluoview 300, using Ar-ion laser (selecting 488 nm line) and a 510-nm long-pass filter. Images can be acquired using two channels: reflected light and fluorescent mode channel, or an overlay of both channels.
The experimental conditions for imaging the peptide-labeled HCAECs are described previously.

## Fl-KKGG-FQTPPQL (fluorescein-KKGGFQTPPQL) [peptide FQTPPQL conjugated with fluorescein via KKGG linker]
  binding to / localization on HCAECs (fluorescent image): shown to bind

— patent US20050089471A1, “Labeled ligands for lectin-like oxidized low-density lipoprotein receptor (LOX-1)” (priority 2003, published 2005)
